The target in the assay is T1, Human BCL-XL protein (N-terminal HiBiT tagged BCL-XL in HT1080 cells) (Homo sapiens, UniProt Q07817).
T1 construct: expressed in transfected cells; host or cells: HT-1080 (ATCC CCL-121), stably transduced with lentivirus pLV-UBC-N-HiBiT-BCL-XL-PGK-puro and selected with puromycin
The experiment in a line: HiBiT based degradation assay. The settings on record: HT1080 cells expressing HiBiT-BCL-XL, 24 h; for Ymin (24 h): BCL-XL degradation normalized with DMSO control; for DC50: BCL-XL degradation, read-out: EC50 (24 h). Type of assay: cell-based. The text has this:
Human BCL-XL protein coding open reading frame fused with N-terminal HiBiT coding sequence was synthesized from Integrated DNA Technologies (IDT). Next, N-HiBiT-BCL-XL sequence was cloned into pLV-UBC-PGK-Puro, a lentivirus plasmid purchased from Vectorbuilder, to generate pLV-UBC-N-HiBiT-BCL-XL-PGK-puro. Lentiviral particles were generated from Lenti-X™ 293T cells (Clontech) by co-transfection of pLV-UBC-N-HiBiT-BCL-XL-PGK-puro plasmids and lentiviral packaging plasmid mix (Cellecta). HT-1080 [HT1080](ATCC CCL-121) cells were infected with the lentivirus, and HT1080 cells stably integrated with the lentiviral vectors were established by incubation with 1 μg/mL puromycin (Thermofisher).
HT1080 cells expressing N-terminal HiBiT tagged BCL-XL were dispensed into a 384-well plate pre-spotted with compounds at varying concentrations. Three thousand cells were seeded into each well in 40 μL of RPMI 1640 media. […] After incubation, luminescence was read on a PHERAstar FSX Plate Reader (BMG). BCL-XL degradation at each indicated concentration was normalized with the DMSO control. The BCL-XL degradation curves were plotted using a four-parameter logistic model. For compounds displaying hook effects, the curve fitting was performed using the bottom point of the hook curves (i.e., the point of Ymin) as the bottom plateau to calculate EC50.
(In general: The HiBiT peptide binds its large partner to form an active luciferase.)

T1 sequence (Q07817 whole entry): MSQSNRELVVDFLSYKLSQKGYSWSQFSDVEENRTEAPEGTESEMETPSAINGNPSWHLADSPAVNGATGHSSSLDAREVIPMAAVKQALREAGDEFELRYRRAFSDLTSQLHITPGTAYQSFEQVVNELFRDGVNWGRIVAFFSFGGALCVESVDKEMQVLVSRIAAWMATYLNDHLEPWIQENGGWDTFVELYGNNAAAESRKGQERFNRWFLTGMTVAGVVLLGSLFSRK

Take `Cc1c(O[C@H]2CC[C@H](C[C@@H](C)CN3CCN(c4cccc5c(C6CCC(=O)NC6=O)nn(C)c45)CC3)CC2)cccc1-c1ccc(N2CCc3cccc(C(=O)Nc4nc5ccccc5s4)c3C2)nc1C(=O)O` (single isomer, unassigned) [Compound 284b, 6-(8-(benzo[d]thiazol-2-ylcarbamoyl)-3,4-dihydroisoquinolin-2(1H)-yl)-3-(3-(((1R,4r)-4-((2R*)-3-(4-(3-(2,6-dioxopiperidin-3-yl)-1-methyl-1H-indazol-7-yl)piperazin-1-yl)-2-methylpropyl)cyclohexyl)oxy)-2-methylphenyl)picolinic acid]: the “Ymin (24 h)” value is given as “A (Ymin < 50%)” and the DC50 is under 100 nM.
The matching figures for `Cc1c(OCC[C@@H]2CC23CCN(CC(=O)Nc2ccc4c(C5CCC(=O)NC5=O)nn(C)c4c2)CC3)cccc1-c1ccc(N2CCc3cccc(C(=O)Nc4nc5ccccc5s4)c3C2)nc1C(=O)O` (single isomer, unassigned) [Compound 289a]: “A (Ymin < 50%)” and under 100 nM.
The matching figures for `Cc1c(O[C@H]2CC[C@H](C[C@H](C)CCN3CCN(c4ccc5c(C6CCC(=O)NC6=O)nn(C)c5c4)CC3)CC2)cccc1-c1ccc(N2CCc3cccc(C(=O)Nc4nc5ccccc5s4)c3C2)nc1C(=O)O` (single isomer, unassigned) [Compound 307a]: “A (Ymin < 50%)” and under 100 nM.
The matching figures for `Cc1c(O[C@H]2CC[C@H](C[C@@H](C)CCN3CCN(c4ccc5c(C6CCC(=O)NC6=O)nn(C)c5c4)CC3)CC2)cccc1-c1ccc(N2CCc3cccc(C(=O)Nc4nc5ccccc5s4)c3C2)nc1C(=O)O` (single isomer, unassigned) [Compound 307b]: “A (Ymin < 50%)” and under 100 nM.
As for `Cc1c(O[C@H]2CC[C@H](CC[C@@H](C)CN3CCN(c4ccc5c(C6CCC(=O)NC6=O)nn(C)c5c4)CC3)CC2)cccc1-c1ccc(N2CCc3cccc(C(=O)Nc4nc5ccccc5s4)c3C2)nc1C(=O)O` (single isomer, unassigned) [Compound 308a], the “Ymin (24 h)” value is listed as “A (Ymin < 50%)” and the DC50 is under 100 nM.
The matching figures for `Cc1c(O[C@H]2CC[C@H](CC[C@H](C)CN3CCN(c4ccc5c(C6CCC(=O)NC6=O)nn(C)c5c4)CC3)CC2)cccc1-c1ccc(N2CCc3cccc(C(=O)Nc4nc5ccccc5s4)c3C2)nc1C(=O)O` (single isomer, unassigned) [Compound 308b]: “A (Ymin < 50%)” and under 100 nM.
The matching figures for `Cc1c(O[C@H]2CC[C@H]([C@H](C)CCN3CCN(c4ccc5c(C6CCC(=O)NC6=O)nn(C)c5c4)CC3)CC2)cccc1-c1ccc(N2CCc3cccc(C(=O)Nc4nc5ccccc5s4)c3C2)nc1C(=O)O` (single isomer, unassigned) [Compound 310a]: “A (Ymin < 50%)” and under 100 nM.
For the compound `Cc1c(O[C@H]2CC[C@H]([C@@H](C)CCN3CCN(c4ccc5c(C6CCC(=O)NC6=O)nn(C)c5c4)CC3)CC2)cccc1-c1ccc(N2CCc3cccc(C(=O)Nc4nc5ccccc5s4)c3C2)nc1C(=O)O` (single isomer, unassigned) [Compound 310b], the “Ymin (24 h)” value was “A (Ymin < 50%)” and the DC50 was under 100 nM.
The matching figures for `Cc1c(O[C@H]2CC[C@H](CCCN3CCC(c4cccc5c(C6CCC(=O)NC6=O)nn(C)c45)C3)CC2)cccc1-c1ccc(N2CCc3cccc(C(=O)Nc4nc5ccccc5s4)c3C2)nc1C(=O)O` (single isomer, unassigned) [Compound 320a]: “A (Ymin < 50%)” and under 100 nM.
On to `Cc1c(O[C@H]2CC[C@H](CCCN3CC[C@@H](c4cccc5c(C6CCC(=O)NC6=O)nn(C)c45)C3)CC2)cccc1-c1ccc(N2CCc3cccc(C(=O)Nc4nc5ccccc5s4)c3C2)nc1C(=O)O` (single isomer, unassigned) [Compound 320b], for which the “Ymin (24 h)” value is “A (Ymin < 50%)” and the DC50 was under 100 nM.
The matching figures for `Cc1c(O[C@H]2CC[C@H](CCCCN3CC[C@H](c4cccc5c(C6CCC(=O)NC6=O)nn(C)c45)C3)CC2)cccc1-c1ccc(N2CCc3cccc(C(=O)Nc4nc5ccccc5s4)c3C2)nc1C(=O)O` (single isomer, unassigned) [Compound 321a]: “A (Ymin < 50%)” and under 100 nM.
`Cc1c(O[C@H]2CC[C@H](CCCCN3CC[C@@H](c4cccc5c(C6CCC(=O)NC6=O)nn(C)c45)C3)CC2)cccc1-c1ccc(N2CCc3cccc(C(=O)Nc4nc5ccccc5s4)c3C2)nc1C(=O)O` (single isomer, unassigned) [Compound 321b]: the “Ymin (24 h)” value is “A (Ymin < 50%)” and the DC50 is under 100 nM.
The matching figures for `Cc1c(O[C@H]2CC[C@H](CCCN3CC[C@H](c4ccc5c(C6CCC(=O)NC6=O)nn(C)c5c4)C3)CC2)cccc1-c1ccc(N2CCc3cccc(C(=O)Nc4nc5ccccc5s4)c3C2)nc1C(=O)O` (single isomer, unassigned) [Compound 331a]: “A (Ymin < 50%)” and under 100 nM.
`Cc1c(O[C@H]2CC[C@H](CCCN3CC[C@@H](c4ccc5c(C6CCC(=O)NC6=O)nn(C)c5c4)C3)CC2)cccc1-c1ccc(N2CCc3cccc(C(=O)Nc4nc5ccccc5s4)c3C2)nc1C(=O)O` (single isomer, unassigned) [Compound 331b]: the “Ymin (24 h)” value was “A (Ymin < 50%)” and the DC50 was under 100 nM.
The matching figures for `Cc1c(O[C@H]2CC[C@H](CCCCN3CC[C@H](c4ccc5c(C6CCC(=O)NC6=O)nn(C)c5c4)C3)CC2)cccc1-c1ccc(N2CCc3cccc(C(=O)Nc4nc5ccccc5s4)c3C2)nc1C(=O)O` (single isomer, unassigned) [Compound 332a]: “A (Ymin < 50%)” and under 100 nM.
The matching figures for `Cc1c(O[C@H]2CC[C@H](CCCCN3CC[C@@H](c4ccc5c(C6CCC(=O)NC6=O)nn(C)c5c4)C3)CC2)cccc1-c1ccc(N2CCc3cccc(C(=O)Nc4nc5ccccc5s4)c3C2)nc1C(=O)O` (single isomer, unassigned) [Compound 332b]: “A (Ymin < 50%)” and under 100 nM.
The matching figures for `Cc1c(O[C@H]2CC[C@H](CCC[C@H](C)N3CCN(c4ccc5c(C6CCC(=O)NC6=O)nn(C)c5c4)CC3)CC2)cccc1-c1ccc(N2CCc3cccc(C(=O)Nc4nc5ccccc5s4)c3C2)nc1C(=O)O` (single isomer, unassigned) [Compound 333a]: “A (Ymin < 50%)” and under 100 nM.
For `Cc1c(O[C@H]2CC[C@H](CCC[C@@H](C)N3CCN(c4ccc5c(C6CCC(=O)NC6=O)nn(C)c5c4)CC3)CC2)cccc1-c1ccc(N2CCc3cccc(C(=O)Nc4nc5ccccc5s4)c3C2)nc1C(=O)O` (single isomer, unassigned) [Compound 333b], the “Ymin (24 h)” value is listed as “A (Ymin < 50%)” and the DC50 is under 100 nM.
The matching figures for `Cc1c(O[C@H]2CC[C@H](CCCC(C)N3CCN(c4cccc5c(C6CCC(=O)NC6=O)nn(C)c45)CC3)CC2)cccc1-c1ccc(N2CCc3cccc(C(=O)Nc4nc5ccccc5s4)c3C2)nc1C(=O)O` (single isomer, unassigned) [Compound 349a]: “A (Ymin < 50%)” and under 100 nM.

For the origin of these results see patent US20240238423A9, “TETRAHYDROISOQUINOLINE HETEROBIFUNCTIONAL BCL-XL DEGRADERS” (Treeline Biosciences, Inc., priority 2022, published 2024).
